Holding throughout (assay type): cell-based
Assay [1] concerns T47D. Briefly: Cancer cell panel, cell viability (resazurin): Breast, T47D. Particulars: Homo sapiens, 72 hours, single agent, read-out: Example 3 IC50.
Assay [2] concerns MDA-MB-231. Briefly: Cancer cell panel, cell viability (resazurin): Breast, MDA-MB-231. Particulars: Homo sapiens; MDA-MB-231 (Breast), 72 hours, single agent; read-out: Example 3 IC50.
Assay [3] relates to ZR-75-1. Briefly: Cancer cell panel, cell viability (resazurin): Breast, ZR-75-1. The following applies: Homo sapiens; ZR-75-1 (Breast), 72 hours, single agent; read-out: Example 3 IC50.
Protocol: (§1) Cells were plated in 96-well plates and treated for 72 hours with a serially diluted CK2 inhibitor or anti-cancer drug or their combination. The suspension cell lines were treated right after plating, while the adherent cells were allowed to attach overnight prior to the start of the treatment.
(§2) Cell viability was determined by adding resazurin to cell cultures and measuring fluorescence with a plate reader. Relative cell viability was calculated by dividing the cell viability signal from a test sample by that of a non-treated control. […] Bliss Independence and Highest Single Agent models were used to determine if there is synergy, additivity or antagonism between the CK2 inhibitor and an anti-cancer drug.
Assay [4] deals with 786-O. Briefly: Cancer cell panel, cell viability (resazurin): Renal, 786-O. The following applies: Homo sapiens, 786-0; 786-O (Renal), 72 hours, single agent; read-out: Example 3 IC50.
For assay [5], the system named is BT-474. The assay can be described thus: Cancer cell panel, cell viability (resazurin): Breast, BT-474. The following applies: Homo sapiens; BT-474 (Breast), 72 hours, single agent; read-out: Example 3 IC50.
For assay [6], the system named is MDA-MB-453. Briefly: Cancer cell panel, cell viability (resazurin): Breast, MDA-MB-453. Particulars: Homo sapiens; MDA-MB-453 (Breast), 72 hours, single agent; read-out: Example 3 IC50.
Protocol: as §1, §2
Assay [7] has as its system K562. The assay can be described thus: Cancer cell panel, cell viability (resazurin): Leukemia, K562. Particulars: Homo sapiens, 72 hours, single agent, read-out: Example 3 IC50.
Protocol: as §1, §2
In assay [8] the test system is BxPC3. Briefly: Cancer cell panel, cell viability (resazurin): Pancreatic, BxPC3. Particulars: Homo sapiens, BXPC-3, 72 hours, single agent, read-out: Example 3 IC50.
For assay [9], the system named is MeWO. Briefly: Cancer cell panel, cell viability (resazurin): Melanoma, MeWO. Particulars: Homo sapiens, 72 hours, single agent, read-out: Example 3 IC50.
The subject of assay [10] is U266. Briefly: Cancer cell panel, cell viability (resazurin): multiple myeloma, U266. Particulars: Homo sapiens, U-266, 72 hours, single agent, read-out: Example 3 IC50.
Protocol: as §1, §2
Assay [11] concerns SK-MEL-24. The assay can be described thus: Cancer cell panel, cell viability (resazurin): Melanoma, SK-MEL-24. The following applies: Homo sapiens; SK-MEL-24 (Melanoma), 72 hours, single agent; read-out: Example 3 IC50.
In assay [12] the test system is Colo205. Briefly: Cancer cell panel, cell viability (resazurin): Colon, Colo205. Particulars: Homo sapiens, COLO 205, 72 hours, single agent, read-out: Example 3 IC50.
Protocol: as §1, §2
Assay [13] has as its system MDA-MB-157. Briefly: Cancer cell panel, cell viability (resazurin): Breast, MDA-MB-157. The following applies: Homo sapiens; MDA-MB-157 (Breast), 72 hours, single agent; read-out: Example 3 IC50.
Assay [14] relates to SKOV-3. Briefly: Cancer cell panel, cell viability (resazurin): Ovarian, SKOV-3. Particulars: Homo sapiens, SK-OV-3; SKOV-3 (Ovarian), 72 hours, single agent; read-out: Example 3 IC50.
Assay [15] deals with ACHN. Briefly: Cancer cell panel, cell viability (resazurin): Renal, ACHN. The following applies: Homo sapiens, 72 hours, single agent, read-out: Example 3 IC50.
Assay [16] has as its system EOL-1. The assay can be described thus: Cancer cell panel, cell viability (resazurin): Leukemia, EOL-1. Particulars: Homo sapiens, EOL1; EOL-1 (Leukemia), 72 hours, single agent; read-out: Example 3 IC50.
For assay [17], the system named is H1299. The assay can be described thus: Cancer cell panel, cell viability (resazurin): NSCLC, H1299. Particulars: Homo sapiens, NCI-H1299, 72 hours, single agent, read-out: Example 3 IC50.
Assay [18] concerns H460. Briefly: Cancer cell panel, cell viability (resazurin): NSCLC, H460. Particulars: Homo sapiens, NCI-H460, 72 hours, single agent, read-out: Example 3 IC50.
Protocol: as §1, §2
Assay [19] concerns U87MG. The assay can be described thus: Cancer cell panel, cell viability (resazurin): Glioblastoma, U87MG. Particulars: Homo sapiens, U-87 MG, 72 hours, single agent, read-out: Example 3 IC50.
Protocol: as §1, §2

Drawing on patent US10227344B2, “CK2 inhibitors, compositions and methods thereof” (Polaris Pharmaceuticals, Inc., priority 2016, dated 2019), this text covers IC50 for one compound.

Bounds are passed on as bounds.

As to `C[S@+]([O-])Cc1cc(Nc2cc(NC3CC3)n3ncc(C#N)c3n2)ccc1Cl` [Example 3, (S)(+)-5-((4-Chloro-3-((methylsulfinyl)methyl)phenyl)amino)-7-(cyclopropylamino)pyrazolo[1,5-a]pyrimidine-3-carbonitrile], the IC50 in [1] was found to be 861 nM; in assay [2], 567 nM; in [3], 323 nM; in [4], 2620 nM; in assay [5] it was 338 nM; in [6], 148 nM. Moreover, the IC50 was 463 nM in [7]; 3600 nM in [8]; 263 nM in assay [9]; greater than 10000 nM in [10]; 1410 nM in assay [11]; 1120 nM in assay [12]. In addition, the IC50 in assay [13] was found to be 447 nM; in assay [14], 1380 nM; in assay [15], 409 nM; in [16], 138 nM; in assay [17] it was 246 nM; in assay [18], 350 nM. The IC50 in assay [19] was determined as 1120 nM.
